Measurements: PubChem BioAssay AID1963597 (National Center for Advancing Translational Sciences (NCATS), 2024)

Test system: human liver microsomes, metabolic stability half-life
Test: NCATS Human Liver Microsomal (HLM) Stability Profiling
Conditions: higher = more stable; screened at 1 µM (by protocol)
Summary of the method: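 Half-life derived from parent loss over 0–60 min (0, 5, 10, 15, 30, 60 min) at 37 °C. Incubations: 0.5 mg/mL microsomes, 1 µM test article, NADPH regeneration, pH 7.4 phosphate; quenched in acetonitrile containing albendazole, analysed by MS.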

Structure (SMILES)	half-life
O=c1cc(-c2ccc(O)cc2)oc2cc(O)cc(O)c12	18.8 min
CN(C)Cc1c(C(=O)NCCOc2ccc(C(=O)NO)cc2)oc2ccccc12	> 120 min
CN(C)N(C)C(=O)[C@@]1(Cc2ccccc2)CCCN(C(=O)[C@@H](Cc2c[nH]c3ccccc23)NC(=O)C(C)(C)N)C1	12.6 min
Cc1cc2c(cc1S(N)(=O)=O)S(=O)(=O)CCC2	> 120 min
CCc1cc(-c2n[nH]c(C)c2-c2ccc3c(c2)OCCO3)c(O)cc1O	13.4 min
CCOc1ccc(NC(=O)CC(C)O)cc1 (stereo unspecified)	> 120 min
CCOc1ccccc1OCCN[C@H](C)Cc1ccc(OC)c(S(N)(=O)=O)c1	> 120 min
O=C(Cn1cc(SCc2cccc(Cl)c2)c2ccccc21)N1CCCCC1	0.84 min
C[C@H]1CN(CC[C@H](O)C2CCCCC2)CC[C@@]1(C)c1cccc(O)c1	6.75 min
Clc1ccc2c(c1)Nc1ccccc1S2	6.28 min
COC(=O)/C=C\C(=O)OC	> 120 min
CC(C)COC(=O)c1ccc(N)cc1	11.4 min
COc1cc(C(=O)N2CCCCCCC2)cc(OC)c1OC	29.3 min
Cc1noc(-c2ccc(-c3ccc(CC(=O)O)cc3)cc2)c1NC(=O)O[C@H](C)c1ccccc1Cl	29.7 min
C=CC(=O)Nc1cccc(CN2C(=O)N(c3c(Cl)c(OC)cc(OC)c3Cl)Cc3cnc(NCCCCN(CC)CC)nc32)c1	43 min
CC(C)(C)c1coc([C@@H]2COCCN2Cc2ccc(C(=O)O)cc2)n1	80.9 min
COc1ccc(CC(=O)NCC(c2cccs2)S(=O)(=O)c2ccc(Cl)cc2)cc1 (stereo unspecified)	4.19 min
CCC[C@H](N[C@@H](C)C(=O)N1[C@H](C(=O)O)C[C@@H]2CCCC[C@@H]21)C(=O)OCC	> 120 min
C#CCOC(C(=O)OCCN(C)C)(c1ccccc1)c1ccccc1	43.7 min
CC[C@H](C)C(=O)O[C@H]1C[C@@H](C)C=C2C=C[C@H](C)[C@H](CC[C@@H]3C[C@@H](O)CC(=O)O3)[C@H]21	7.05 min
CNC(=O)c1ccccc1Nc1nc(Nc2ccc(N3CCOCC3)cc2OC)ncc1Cl	34.9 min
CCNCc1nc2c(N)nc3ccccc3c2n1CC(C)(C)O	> 120 min
CC(=O)Nc1cccc(O)c1	> 120 min
O=Nc1c(-c2c(O)[nH]c3cc(Br)ccc23)[nH]c2ccccc12	19 min
COc1ccc(-c2ccc3ncc4c(c3c2)n(-c2ccc(N3CCNCC3)c(C(F)(F)F)c2)c(=O)n4C)cn1	36.3 min
COC(=O)[C@@H]1CC2=CC(=O)CC[C@]2(C)[C@@]23O[C@@H]2C[C@@]2(C)[C@H](CC[C@@]24CCC(=O)O4)[C@@H]13	> 120 min

Structure (SMILES)	half-life
COc1ccc(S(=O)(=O)Nc2cc(Cl)cc(Cl)c2OC)cc1N1CCNCC1	> 120 min
C[C@]12CCC(=O)C=C1[C@@H]1C[C@@H]1[C@H]1[C@@H]3[C@@H]4C[C@@H]4[C@@]4(CCC(=O)O4)[C@@]3(C)CC[C@@H]12	> 120 min
CC(=O)N1C[C@H](O)C[C@H]1C(=O)O	50.1 min
COc1cc(C(=O)NC(c2ccccc2Cl)c2cc(Cl)c3cccnc3c2O)cc(OC)c1OC (stereo unspecified)	25.6 min
COc1cc(/C=N\NC(=O)c2ccc3c(c2)OCO3)ccc1OCc1ccccc1	23.5 min
CN1CCC2=C(C1)c1ccccc1Cc1ccccc12	95 min
CNC(=O)c1ccc(N2C(=S)N(c3cnc(C#N)c(C(F)(F)F)c3)C(=O)C23CCC3)cc1F	> 120 min
Cc1cccc(N2CCN(C(=O)CCC(=O)NNc3nc4ccccc4c4nc(C)nn34)CC2C)c1 (stereo unspecified)	6.71 min
O=C(Cn1ccnc1[N+](=O)[O-])NCc1ccccc1	> 120 min
CNCC[C@@H](Oc1ccccc1C)c1ccccc1	23.9 min
COc1cc2c(Oc3ccc(-c4cnc(Nc5ccc(F)cc5)n(C)c4=O)cc3F)ccnc2cc1OCCCN1CCOCC1	30.6 min
COc1cc(C(C)=O)ccc1OCCCN1CCC(c2noc3cc(F)ccc23)CC1	25.1 min
CC(=O)Nc1ccc(OC[C@@H](O)CNC(C)C)cc1	> 120 min
O=C1c2ccccc2S(=O)(=O)N1CCCCN1CCN(c2ncccn2)CC1	24.5 min
CCC(CC)Nc1nc(C)c(-c2ccc(OC(F)(F)F)cc2OC)nc1OC	20.5 min
COc1ccc2cc(-c3cc(-c4cc(Cl)cc(Cl)c4)nn3C(C)c3ccc(C(=O)NCCC(=O)O)cc3)ccc2c1 (stereo unspecified)	> 120 min
CCCOc1ccc(-c2nc(OC)c3ccccc3n2)cc1	14.7 min
CC(C)c1ccc2oc(-c3ccc(NC(=O)c4cc5ccccc5o4)cc3)nc2c1	25.3 min
Nc1ccc(S(=O)(=O)Nc2ccccc2)cc1	> 120 min
COc1ccc(CCO[C@@H]2CCCC[C@H]2N2CC[C@@H](O)C2)cc1OC	> 120 min
CCC(=O)N[C@@H]1Cc2ccccc2[C@H](c2ccccc2)C1	46.1 min
C=C1CC[C@@]2(O)[C@H]3Cc4ccc(O)c5c4[C@@]2(CCN3CC2CC2)[C@H]1O5	> 120 min
O=C(O)c1ccc(CN2CCC(CN[C@@H]3C[C@H]3c3ccccc3)CC2)cc1	> 120 min
N#C/C(=C1\SCC(c2ccccc2Cl)S1)n1ccnc1 (stereo unspecified)	86.2 min
O=C(O)Cn1nnc(-c2cc(N3CCC(Oc4cc(F)ccc4Br)CC3)no2)n1	> 120 min
COc1ccc(-c2cc(=S)ss2)cc1	0.73 min

Structure (SMILES)	half-life
COc1ccc2nc([C@H]3CCN(Cc4cccc(C#N)c4)C3)[nH]c2c1	12.3 min
N#Cc1cn([C@@H]2O[C@H](CO)[C@H](O)[C@@H]2O)c2ncnc(N)c12	> 120 min
COc1ccccc1OC[C@H](O)COC(N)=O	> 120 min
CC(=O)[C@H]1CC[C@H]2C3CC=C4C[C@@H](O)CC[C@]4(C)C3CC[C@]12C (stereo partly specified)	106 min
Nc1nccs1	53.7 min
CCC(CC)n1ccc2c(C(=O)NCc3c(C)cc(C)[nH]c3=O)cc(C#N)cc21	3.94 min
CCC(C)(C)c1ccc(CC(C)CN2C[C@@H](C)O[C@@H](C)C2)cc1 (stereo partly specified)	12.2 min
CN(C)CCN(Cc1ccc(Cl)cc1)c1ccccn1	18.8 min
Cn1c(=O)c2c(ncn2CCO)n(C)c1=O	> 120 min
COc1cccc(NC(=O)c2oc3ccc(S(=O)(=O)N4CCC5(CC4)OCCO5)cc3c2C)c1	12.2 min
COc1cccc(C(=O)Nc2nc(-c3nnn(-c4ccccc4C(F)(F)F)c3C)ns2)c1	> 120 min
c1ccc(OCc2ccc(CCCN3CCOCC3)cc2)cc1	26.7 min
CCOc1ccc(NS(=O)(=O)c2ccc(N)cc2)nn1	> 120 min
Oc1cccc(C2NC(=S)Nc3cccc(F)c32)c1 (stereo unspecified)	> 120 min
N#Cc1ccc(-c2ccc(S(=O)(=O)Nc3cccc(N)n3)cc2)cc1	> 120 min
CCOc1ccc(S(=O)(=O)N2CCCCCC2)c2ccccc12	6.52 min
CCN(CC)CCNc1ccc(CO)c2sc3ccccc3c(=O)c12	90.3 min
O=C1c2ccccc2C(=O)c2c(O)c(O)cc(O)c21	59.8 min
CC[C@]1(O)C[C@@H]2CN(CCc3c([nH]c4ccccc34)[C@@](C(=O)OC)(c3cc4c(cc3OC)N(C)[C@H]3[C@@](O)(C(=O)OC)[C@H](OC(C)=O)[C@]5(CC)C=CCN6CC[C@]43[C@@H]65)C2)C1	54.6 min
COc1ccc(Sc2ccc(NC(=O)c3ccccc3Cl)cc2C#N)cc1	31.4 min
COc1ccccc1N1CCN(CCCNc2cc(=O)n(C)c(=O)n2C)CC1	> 120 min
FC(F)(F)c1ccccc1-c1cc(C(F)(F)F)c2nc(C3=NOC4(CCCCC4)C3)[nH]c2c1	67.7 min
CN1C(=O)COc2c(C(=O)NC3CN4CCC3CC4)cc(Cl)cc21 (stereo unspecified)	> 120 min
O=C(N[C@H]1CN2CCC1CC2)c1cc2cccc(Cl)c2s1	> 120 min
